A short description of the data set: Cell viability by MTT test. The format is cell-based, rat. Particulars: rat, 24 h, INS-1 cells, control 100%. How it is done:
INS-1 cell strain from rat origin used in the studies was proliferated by performing routine passages once per week. The cells were grown under 1 atm pressure, in the incubator containing 5% CO2 and 95% air, in powder RPMI 1640 medium containing heat inactivated 10% fetal bovine serum (FBS) and antibiotics (100 unit/ml penicillin G100, 100 µg/ml streptomycin), 1% sodium pyruvate, hepes, sodium bicarbonate and beta-mercaptoethanol at 37 °C. The cells produced in 75 cm^2 sterile culture plate were used for the experiment when they covered 60-80% of the culture plate.
The cells to be used in the experiments were removed from the surface of culture plate where they stuck, when they cover 60-80% of the culture plate, by using trypsin. In order to prevent the effect of trypsin to cells whose removal was monitored under microscope, the medium with the equal amount as trypsin was added and the cell suspension was collected in the centrifuge tube and centrifuged in 1500 rpm for 5 minutes. The supernatant was removed after centrifuge, the medium was added to the cells remained in the bottom part of the tube and pipetted in order to form single cell suspension. The total amount of cells was calculated by using hemocytometer. 50 000 INS-1 beta cells taken from 100% viable single cell suspension, whose cell amount was calculated, were cultured to each of the culture plates with 96 wells. The cultured cells were incubated at 37 °C for 24 hours in order to provide the sticking to the surface of culture plate and growing. After 24 of incubation, the cells were treated with 0.25 mM, 0.5 mM, 0.75 mM, 1 mM, 1.25 mM, 1.5 mM, 1.75 mM, […], 2.75 mM, 3 mM, 3.25 mM, 3.5 mM, 3.75 mM,4 mM, 4.25 mM, 4.5 mM, 4.75 mM, 5 mM palmitic acid which were the chosen doses for palmitic acid. 10 wells including the control group were used in the experiments and 24-hour experiment groups were formed for each of the concentrations.
After the removal of the grown cells by trypsin, culturing was performed to 96 wells in a way such that there would be 50 000 cells in 200 µl. The cultured cells were incubated at 37 °C for 24 hours in order to provide growing. After 24 h of incubation, the cells were treated with 1nM, 10nM, 100nM curaglutide which were the chosen doses. 10 wells including the control group were used in the experiments and 24-hour experiment groups have been formed for each of the concentrations.
MTT ([3-(4, 5-dimethyl tiazol-2-il)-2, 5 diphenyl tetrazolium bromide]) test is a drug sensitivity test based on cell culture principal, it aims to assess the cell growth and/or cell death in an indirect way. This frequently used test differs from the other testing methods, with the advantages that it is fast, sensitive, reproducible and easy to apply. The cracking of the tetrazolium ring of MTT paint by mitochondria in living cells underlies the basis of this method. This reaction is catalyzed by succinate dehydrogenase which is a mitochondrial enzyme. MTT is absorbed to cells actively and it is reduced to formazan which is non-soluble in water and has blue-purple color, by the reaction taking place in mitochondria. The MTT reducing properties of the cells are accepted as the cell viability criteria and they are directly proportionate to the paint density and living cell amount obtained by MTT analyze. While living cells with non-damaged mitochondria function are painted with purple color, cells that are dead or with damaged mitochondria function are not painted. Following bringing the formazan crystals formed by incubated living cells into soluble form, reaction product is read […].
50 mg MTT (AppliChem A2231 0001) was weighed, it was dissolved by completing 10 ml with RPMI 1640 medium via vortex, with paying attention that there are no not-dissolved paint particles left, and they were obtained by filtering through 0.22 µm filter. It was used by preparing a fresh one each time. […]

In general, viability refers to the share of living cells, or the viability signal relative to a control.

Regarding `CCCCCCCCCCCCCCCC(=O)O` [palmitic acid], the viability at 24 h, 0.25 mM (0.25 mM palmitic acid) amounted to 92 ± 2.4%. Further, the viability at 24 h, 0.5 mM (0.5 mM palmitic acid) stood at 81.5 ± 7.6%. Under “0.75 mM palmitic acid”, the viability at 24 h, 0.75 mM is 75.6 ± 4.37%. For the setting “1 mM palmitic acid”, the viability at 24 h, 1 mM was found to be 74.8 ± 2.35%. This molecule displayed a viability at 24 h, 1.25 mM (1.25 mM palmitic acid) of 72.7 ± 7.7%. The molecule also displayed a viability at 24 h, 1.5 mM (1.5 mM palmitic acid) of 69.9 ± 7.4%. For the same molecule, the viability at 24 h, 1.75 mM (1.75 mM palmitic acid (autophagic dose)) turned out to be 60.6 ± 11.6%. For the same molecule, for the setting “2 mM palmitic acid (apoptotic dose)”, the viability at 24 h, 2 mM worked out at 50.1 ± 11%. Where the note is “2.25 mM palmitic acid”, this molecule came in with a viability at 24 h, 2.25 mM of 58.4 ± 11.5%. The same molecule gave a viability at 24 h, 2.5 mM (2.5 mM palmitic acid) of 49.9 ± 3%. The molecule further displayed a viability at 24 h, 2.75 mM (2.75 mM palmitic acid) of 62.9 ± 4.3%. Where the note is “3 mM palmitic acid (necrotic dose)”, this molecule returned a viability at 24 h, 3 mM of 36.5 ± 3.3%. Where the note is “3.25 mM palmitic acid”, this molecule gave a viability at 24 h, 3.25 mM of 44.1 ± 8.7%. Also, the viability at 24 h, 3.5 mM (3.5 mM palmitic acid) is 39.4 ± 11.4%. Further, the viability at 24 h, 3.75 mM (3.75 mM palmitic acid) came out at 42.9 ± 8.2%. The same molecule registered a viability at 24 h, 4 mM (4 mM palmitic acid (necrotic dose)) of 41 ± 6.6%. Also, under “4.25 mM palmitic acid”, the viability at 24 h, 4.25 mM is 44.9 ± 11.8%. The molecule also came in with a viability at 24 h, 4.5 mM (4.5 mM palmitic acid) of 37.3 ± 10.5%. In addition, the viability at 24 h, 4.75 mM (4.75 mM palmitic acid) is 35.7 ± 3.7%. The viability at 24 h, 5 mM (5 mM palmitic acid) is 42.1 ± 4.4%.

(Values after patent publication EP3351262A1, “CURAGLUTIDE FOR IN TREATMENT OF PREDIABETES, DIABETES, OBESITY AND METABOLIC DISEASES ASSOCIATED THERETO” (Istanbul Universitesi Rektorlugu, priority 2016, dated 2018).)
